{"source": "patent US5792457A", "about": "“Antibody recognizing endothelial cell ligand for leukocyte CR3” (priority 1995, dated 1998)", "format_in_all_cases": "cell-based", "key": {"[1]": {"tested_on": "transendothelial migration of human neutrophils through HUVEC monolayers", "test": "Transendothelial migration (TEM) of neutrophils", "settings": "for % Inhibition of TEM: peptides 0.01 mM, native FHA 1 μM, at least 3 experiments with 6 wells/peptide", "source_text": "FIG. 26 is a graphical representation of the inhibition of transendothelial migration of neutrophils by FHA peptide Ca, native FHA and mAb IB4 in a concentration dependent fashion. FHA peptide Ca (.largecircle.); intact FHA (.quadrature.); and mAb IB4 (.tangle-solidup.). Values represent mean±standard deviation of at least 3 experiments with 6 wells/peptide.\nTransendothelial migration of neutrophils was studied based on a method described by Muller et al. (1992), J. Exp. Med. 176: 819-828. Briefly, human neutrophils suspended in ice-cold Hanks balanced salt solution (HBSS) containing Ca^++ and Mg^++ (Sigma) were fluoresceinated by adding 3.3 μl/ml 5-(and 6-)carboxyfluorescein diacetate, succinimidyl ester (CFSE, Molecular Probes Inc., Oreg.). After incubation for 30 mins. on ice, neutrophils were washed twice in cold HBSS with Ca^++ and Mg^++ and resuspended in cold Medium 199 (M199, Sigma) to a final concentration of 10^6 /ml. Human umbilical vein endothelial cells were subcultured at confluence into 96-well tissue culture plates (Becton Dickinson Labware, Lincoln Park, N.J.) that were coated with hydrated collagen gel (Vitrogen; Collagen Corporation, Palo Alto, Calif.) and fibronectin. Endothelial cells were stimulated with 10 ng/ml TNF-alpha for 4 hours and washed three times with warm M199. Neutrophils (10^6 /ml) were preincubated with 0.01 mM of peptides or with 1 μM of native FHA in M199 for 5 mins. on ice before they were added in 100 μl aliquots to the endothelial cells. For positive control, neutrophils were pre-incubated with 25 μg/ml anti-CD18 mAb IB4. For negative control, neutrophils were treated with 25 μg/ml mAb W6/32 against HLA class I antigen (Dako, Carpinteria, Calif.). The cells were incubated for 1 hour at 37° C., 5% CO2. To terminate transmigration, the supernatant fluid was aspirated and the wells were filled with warm 1 mM EGTA (Sigma) in HBSS without Ca and Mg. The plates were covered with plate sealers (Dynatech, Alexandria, Va.) and centrifuged in an inverted position at 250 g for 3 mins. at room temperature. To remove residual non-transmigrated neutrophils from the endothelial cells, monolayers were washed twice with 200 μl of warm Hanks solution without Ca and Mg. Fluorescence was quantitated using a fluorescence counter (Millipore Cytofluorm™ 2300). The percentage of transmigrated neutrophils was determined by comparing the amount of fluorescence of test wells with that measured in collagen- and fibronectin-coated wells without endothelial cells. […] Percent inhibition of transendothelial migration of neutrophils was calculated by comparing the number of transmigrated cells in wells containing neutrophils treated with peptide to neutrophils treated with M199 alone and arbitrarily set at 100% transendothelial migration (TEM).\nThe procedures for determining the neutrophil adherence to cultured endothelial cells and the transendothelial migration of neutrophils were identical with those of Example 9. Control values were the same as those shown in Example 9."}, "[2]": {"tested_on": "Factor Xa procoagulant activity on THP-1 cells", "test": "Generation of Factor Xa by monocytes (THP-1), clotting assay", "settings": "for Factor Xa / Clotting time: peptides 0.5 mM; for Clotting time: mean ± SD of at least 3 experiments", "experimental": "Factor Xa generation was determined by a modification of the method of Miletich et al. (1978), J. Biol. Chem. 253: 6908-6916. THP-1 cells (ATCC; […]) resuspended in RPMI 1640 (Bio Whittaker, Walkersville,Md.) were incubated with 100 μM ADP (Sigma), 2.5 mM CaC2, 1 or 5 μg/ml Factor X (Hematologic Technologies Inc.) and 0.5 mM peptides at room temperature. After 20 minutes, 100 μl of the reaction mixture was transferred to 37° C. and supplemented with 100 μl of bovine factor VII- and Factor X-deficient plasma (Sigma). Coagulation was initiated by adding 100 μl of 25 mM CaC2 and the clotting time was determined. Factor Xa procoagulant activity (ng/ml) was calculated by means of a standard curve constructed by serial concentrations of Factor Xa (Hematologic Technologies Inc.) from 50 to 250 ng/ml."}, "[3]": {"tested_on": "125I-Factor X binding to human neutrophils (CD11b/CD18)", "test": "Inhibition of 125I-Factor X binding to neutrophils", "settings": "for inhibition of 125I-Factor X binding to neutrophils: peptides 0.5 mM, native FHA 0.3 μM", "experimental": "FIG. 15 is a bar graph representation of the inhibition of ^125 I-Factor X binding to neutrophils by FHA, FHA- or Factor X-peptides as identified in Table 6. The concentration of inhibiting substances was: peptides 0.5 mM, native FHA 0.3 μM. Values represent the mean±standard deviation of triplicate experiments.\nFIG. 16 is a graphical representation of the FHA, FHA- or Factor X-peptide concentration effect on the inhibition of ^125 I-Factor X binding to neutrophils. FHA peptide II (Square) and Factor X peptide II (Circle) at 10^-2 to 5×10^2 μM; FHA at 10^-6 to […] (triangle). Values are representative of triplicate experiments (standard deviations <15%).\nHuman Factor X (Sigma or Hematologic Technologies Inc.) was labeled with ^125 I using Iodogen (Pierce Chemical Co.) Human neutrophils were isolated from heparinized blood according to the manufacturer's specification using Neutrophil Isolation Medium (Cardinal Associates, Santa Fe, N. Mex.) and washed three times with 5 mM EDTA-phosphate-buffered saline (PBS), pH 7.2, at 4° C. To eliminate platelet contamination, neutrophils were incubated with autologous serum containing 5 mM EDTA for 30 mins. at 37° C., washed three times with ice-cold PBS, pH 7.2, and resuspended in RPMI 1640 tissue culture medium (Whittaker M.A. Bioproducts, Walkersville, Md.) at 4° C. Binding of ^125 I-Factor X to neutrophils was measured based on a method described by Altieri et al. (1991) Science 254: 1200-1202. Briefly, 200 μl of neutrophils (1.5×10^7 /ml) were supplemented with 17.5 μl of 50 mM CaCl2, stimulated with 3.5 μl of 100 μM NH2 -formyl-Met-Leu-Phe (Sigma), and mixed with 30 μl of 10.3 μg/ml ^125 I-Factor X and 100 μl of 1.75 mM of peptide. Buffer alone and a peptide of scrambled sequence served as controls in each of the 3 experiments. After incubation for 20 mins. at room temperature, neutrophil-bound ^125 I-Factor X was separated from unbound ^125 I-Factor X by centrifugation of 300 μl aliquots through 50 μl of a mixture of Hi phenyl silicone oil DC 550 and methyl silicone oil DC 200 5:1 (Nye Inc. Specialty Lubricants, New Bedford, Mass.) at 12,000×g for 2 mins. Aliquots of the supernatant (cell free ^125 I-Factor X) and the cell pellet (cell bound ^125 I-Factor X) were counted in a gamma-counter. Nonspecific binding (~50,000 cpm) was determined by adding a 100 fold excess of unlabeled Factor X, and subtracted from total radioactivity (~500,000 cpm for controls)."}}, "data": [{"substance": "GTLLLRNDALTENGTVTISA [FHA Cd]", "values": [{"measurement": "% Inhibition of TEM", "setting": "[1]", "value": "6 ± 6", "unit": "%"}]}, {"substance": "AADPHQGVLAQGDIIMDAKG [FHA Cc]", "values": [{"measurement": "% Inhibition of TEM", "setting": "[1]", "value": "11 ± 11", "unit": "%"}]}, {"substance": "RADPHQGVLAQGDIIMDAKG [FHA Cb]", "values": [{"measurement": "% Inhibition of TEM", "setting": "[1]", "value": "8 ± 9", "unit": "%"}]}, {"substance": "DEETVK [scrambled FHA II, reference compound]", "values": [{"measurement": "% Inhibition of TEM", "setting": "[1]", "value": "4 ± 5", "unit": "%"}, {"measurement": "Factor Xa", "setting": "[2]", "value": 165.0, "unit": "ng/mL"}, {"measurement": "Factor Xa", "setting": "[2]; control FHA II peptide", "value": 165, "unit": "ng/mL"}, {"measurement": "Clotting time", "setting": "[2]", "value": "23.1 ± 1.0", "unit": "s"}]}, {"substance": "RGDPHQGVLAQGDIIMDAKG [FHA Ca]", "values": [{"measurement": "concentration required for inhibition of TEM similar to native FHA (82±1% at 1 μM)", "setting": "[1]", "value": 10, "unit": "µM"}, {"measurement": "% Inhibition of TEM", "setting": "[1]", "value": "83 ± 8", "unit": "%"}, {"measurement": "% Inhibition of TEM", "setting": "[1]; listed as FHA peptide Ca", "value": "83±8", "unit": "%"}]}, {"substance": "LGYQAK (UniProt P12255 1979-1984, looked up, fragment) [FHA Ia]", "values": [{"measurement": "% Inhibition of TEM", "setting": "[1]", "value": "23 ± 5", "unit": "%"}, {"measurement": "Factor Xa", "setting": "[2]", "value": 57.4, "unit": "ng/mL"}, {"measurement": "Clotting time", "setting": "[2]", "value": "34.1 ± 1.1", "unit": "s"}]}, {"substance": "GYDTKQEDG [Factor X II]", "values": [{"measurement": "IC50", "setting": "[3]", "value": 500, "unit": "µM"}, {"measurement": "% Inhibition of TEM", "setting": "[1]", "value": "14 ± 9", "unit": "%"}, {"measurement": "reduction of Factor Xa production", "setting": "[2]; 0.5 mM, vs scrambled FHA II, 20 min", "value": "> 90", "unit": "%"}, {"measurement": "Factor Xa", "setting": "[2]", "value": "< 10", "unit": "ng/mL"}, {"measurement": "Clotting time", "setting": "[2]", "value": "55.2 ± 4.0", "unit": "s"}]}, {"substance": "ETKEVDG [FHA II]", "values": [{"measurement": "IC50", "setting": "[3]", "value": 10, "unit": "µM"}, {"measurement": "inhibition of 125I-Factor X binding to neutrophils", "setting": "[3]", "value": "87±8", "unit": "%"}, {"measurement": "% Inhibition of TEM", "setting": "[1]", "value": "21 ± 10", "unit": "%"}, {"measurement": "effect on Factor Xa generation (in words)", "setting": "[2]", "value": "did not interfere with the generation of Factor Xa procoagulant activity"}, {"measurement": "Factor Xa", "setting": "[2]", "value": 86.0, "unit": "ng/mL"}, {"measurement": "Clotting time", "setting": "[2]", "value": "30.0 ± 5.0", "unit": "s"}]}, {"substance": "native FHA: Filamentous hemagglutinin, 220kD surface associated protein of Bordetella pertussis (List Biologicals)", "values": [{"measurement": "IC50", "setting": "[3]", "value": 0.1, "unit": "µM"}, {"measurement": "inhibition of 125I-Factor X binding to neutrophils", "setting": "[3]", "value": "70±4", "unit": "%"}, {"measurement": "% Inhibition of TEM", "setting": "[1]", "value": "82±1", "unit": "%"}, {"measurement": "% Inhibition of TEM", "setting": "[1]; listed as FHA", "value": "82 ± 1", "unit": "%"}, {"measurement": "% Inhibition of TEM", "setting": "[1]; listed as Intact FHA", "value": "82±1", "unit": "%"}]}]}
